US20240294545A1 (CSPC Zhongqi Pharmaceutical Technology (Shijiazhuang) Co., …, priority 2020, published 2024)
Read-outs that look alike come from different tables or passages of the source. Marks after values point to notes of the source that are not given here.

How the values were obtained:
[1] = system: ATM-phosphorylated KAP1; assay: Intracellular ATM-phosphorylated KAP1 level, ICW assay in MCF7 cells; assay type: cell-based, Human; settings: for IC50: MCF7 cells, 2 h compound, 10 Gy irradiation, further 1 h, read-out: pKAP1 IC50; for inhibitory effect on ATM KAP phosphorylation, in words: cellular level, compared with AZD1390 as positive control
Method: 4 Inhibition on Intracellular ATM-Phosphorylated KAP1 Level by the Compounds of the Present Disclosure: ICW Assay
• Cell: Human breast cancer cell line MCF7 • Materials and reagents:
4.2 Experimental Procedures
• (1) Cell inoculation • MCF7 cells were inoculated on a 384-well plate, 10000 cells/well (25 μL/well), and cultured overnight at 37° C. with 5% CO2. • (2) Activity detection • 1) The compound was formulated into a 100 mM solution with DMSO and then sequentially diluted with a gradient of 1:3 to yield a total of 10 concentration gradients, wherein the maximum concentration was 100 μM. • 2) 25 nL of each of the compound solutions with gradient concentrations prepared in step 1) was added to each well of the cell plate (Corning #356663) by using I-DOT One, resulting in a final concentration of 100 nM (maximum dose). • 3) The cell plate containing compound was incubated at 37° C. with 5% CO2 for 2 h. After 2 h, the cell plate was irradiated with a dose of 10 Gy, and then further incubated for 1 h. • 4) 25 μL of 8% paraformaldehyde was added to each well, followed by incubating at room temperature for 20 min. • 5) The 8% paraformaldehyde was discarded, followed by adding 0.1% TrintonX-100 and incubating at room temperature for 30 min. • 6) Odessey blocking buffer was added at 50 μL/well, followed by incubating at room temperature for 1.5 h. • 7) The Odessey blocking buffer was discarded, and then a primary antibody (Phospho-KAP1, 1:2000 dilution) was added, followed by incubating overnight at 4° C. • 8) The primary antibody was removed, followed by washing with PBS+0.1% Tween 20 for 5 times. • 9) DNA dye DRAQ5 coated with a second antibody (IRDye 800CW Goat anti-Rabbit, 1:4000 dilution) was added, followed by incubating at room temperature for 1 h. • 10) The second antibody was removed, followed by washing with PBS+0.1% Tween 20 for 5 times. • 11) PBS+0.1% Tween 20 was sucked off with Odyssey. • (3) Data analysis • 1) the relative ratio of Channel 800/Channel 700 for each well was detected. • 2) % of KAP1 phosphorylation was calculated according to the following formula:
% of KAP1 phosphorylation=[(Ratiocmpd−(Ratio)Positive)/((Ratio)Vehicle−(Ratio)Positive]*100 • (Ratio)Positive: the mean value of the test values of each positive control well in the test cell plate; • (Ratio)Vehicle: the mean value of the test values of each negative control well in the test cell plate. • 3) the IC50 of each compound was calculated and the dose-effect curve was plotted: % of KAP1 phosphorylation and log of compound's concentration were fit by using Graphpad 8.0 so as to calculate the IC50.
[formula] • X: log of compound's concentration • Y: % of KAP1 phosphorylation

[2] = system: Human glioblastoma cell line LN-18; assay: LN18 cell proliferation combined with radiotherapy (CTG assay); assay type: cell-based; settings: for IC50: LN18 cells, 1 Gy irradiation 1 h after compound, 6 days, CTG; for inhibitory effect on LN18 cell proliferation, in words: combined with radiotherapy, compared with AZD1390 as positive control;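 as to IC50: readout is CTG luminescence proliferation not KAP1 phosphorylation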
Method: 5 Test of the Inhibitory Activities of the Compounds of the Present Disclosure Combined with Radiotherapy on LN18 Cell Proliferation
• Cell: Human glioblastoma cell line LN-18
5.2 Experimental Procedures
• (1) Cell inoculation • 1) The cell culture fluid was preheated at 37° C. • 2) A complete culture medium of LN18 cells was prepared, at a ratio of DMEM medium:FBS=95:5 (V/V). • 3) Cells were digested with trypsin, collected to serve as a cell suspension, and counted, the cell suspension was then added into a 96-well plate at 1500 cells/well and 100 μL of cell fluid/well, and three parallel wells were set. • 4) After inoculated in the plate, the cells were cultured overnight under the condition of 37° C. and 5% CO2. • (2) Compound addition and incubation • 1) AZD1390 and tested compounds, respectively, were sequentially diluted 5 times with DMSO, starting from the concentration of 10 mM and yielding the concentrations of 10, 2, 0.4, 0.08, 0.016, 0.0032, 0.00064, 0.000128, and 0.0000256 mM in turn. The compound solutions at the above concentrations were diluted 5000 times with the complete culture medium. The final 2× concentrations were in order 2000, 400, 80, 16, 3.2, 0.64, 0.128, 0.0256, and 0.00512 nM. The vehicle control was 0.02% DMSO culture fluid. • 2) A complete culture medium containing 100 μL of the compound solution was added to each well, and the final concentrations of the compounds in the wells were in order 1000, 200, 40, 8, 1.6, 0.32, 0.064, 0.0128, and 0.00256 nM. The 0.01% DMSO culture fluid was contained in the vehicle control well. After incubated with compound for 1 h, the cells were irradiated at a dose of 1 Gy. • 3) After irradiation, the plate was put into an incubator and incubated under the condition of 37° C. and 5% CO2 for 6 days. Then detection was performed by adopting CTG assay (100 μL of liquid from each well was sucked out and discarded, and 50 μL of CTG reagent was added to each well, and incubated at room temperature for 30 min, and the luminescence intensity was detected). • (3) Data analysis • 1) The Luminescence signal (RLU) of each well was detected. • 2) Proliferation inhibitory activity was calculated according to the formula: % inhibitory activity=RLUtreatment/RLUAvg(Vehicle)*100. 5.3 the Inhibitory Activities of Compounds of the Present Disclosure Combined with Radiotherapy on LN18 Cell Proliferation

[3] = target: ATM (Homo sapiens (Human), UniProt Q13315); assay: Caliper mobility shift assay for ATM; assay type: biochemical; settings: read-out: IC50 of inhibitory activity on ATM kinase
Method: 1.2 Determination of the Inhibitory Activities of Compounds on ATM: Caliper Mobility Shift Assay for ATM
To a 96-well plate, 98 μL of DMSO and 2 μL of the 10 mM stock solution were added and mixed evenly so that the concentration of the solution was 200 μM.
Based on the inhibitory rates of the compound at different concentrations, IC50 was calculated according to the formula: Y=Bottom+(Top−Bottom)/(1+(IC50/X)^HillSlope).

[4] = system: subcutaneous xenograft tumor of human glioblastoma LN-18; assay: LN-18 subcutaneous xenograft, combined with radiotherapy; assay type: in vivo, NOG mice; settings: compound 5 mg/kg intragastric qd × 5 + IR 1 Gy, day 17
Method: 9 Efficacy Test of the Compounds of the Present Disclosure Combined with Radiotherapy on Inhibiting the Growth of Subcutaneous Xenograft Tumor of Human Glioblastoma LN-18
9.1 Experimental Animals: NOG Mice, SPF, Female, 18 to 22 g.
LN-18 tumor cells, DMEM medium:fetal bovine serum=95%:5%, accompanied by adding 100 U/mL penicillin and 100 μg/mL streptomycin, 37° C., 5% CO2.
LN18 tumor cells resuspended in serum-free DMEM medium were inoculated subcutaneously in the right costal region of experimental animals at 1.5*10^7/0.15 mL, and the animals were grouped when the tumor grew to 100 to 150 mm^3. Radiotherapy was performed 1 h after administration of compounds.
Tumor volume: The tumor volume was measured twice a week with a vernier caliper, and the long diameter and short diameter of tumor were measured. The tumor volume was calculated as follows: tumor volume (TV)=0.5×long diameter×short diameter^2. Tumor growth inhibitory rate (TGI %) was calculated according to the tumor volume. TVXn represents the mean tumor volume on day n of the treatment group, TVX0 represents the mean tumor volume on day 0 of the treatment group, TVMn represents the mean tumor volume on day n of the control group, and TVM0 represents the mean tumor volume on day 0 of the control group.

[5] = Homo sapiens, light or radiation study
[6] = Homo sapiens, LN-18, light or radiation study

Chain of ATM (Q13315 whole entry): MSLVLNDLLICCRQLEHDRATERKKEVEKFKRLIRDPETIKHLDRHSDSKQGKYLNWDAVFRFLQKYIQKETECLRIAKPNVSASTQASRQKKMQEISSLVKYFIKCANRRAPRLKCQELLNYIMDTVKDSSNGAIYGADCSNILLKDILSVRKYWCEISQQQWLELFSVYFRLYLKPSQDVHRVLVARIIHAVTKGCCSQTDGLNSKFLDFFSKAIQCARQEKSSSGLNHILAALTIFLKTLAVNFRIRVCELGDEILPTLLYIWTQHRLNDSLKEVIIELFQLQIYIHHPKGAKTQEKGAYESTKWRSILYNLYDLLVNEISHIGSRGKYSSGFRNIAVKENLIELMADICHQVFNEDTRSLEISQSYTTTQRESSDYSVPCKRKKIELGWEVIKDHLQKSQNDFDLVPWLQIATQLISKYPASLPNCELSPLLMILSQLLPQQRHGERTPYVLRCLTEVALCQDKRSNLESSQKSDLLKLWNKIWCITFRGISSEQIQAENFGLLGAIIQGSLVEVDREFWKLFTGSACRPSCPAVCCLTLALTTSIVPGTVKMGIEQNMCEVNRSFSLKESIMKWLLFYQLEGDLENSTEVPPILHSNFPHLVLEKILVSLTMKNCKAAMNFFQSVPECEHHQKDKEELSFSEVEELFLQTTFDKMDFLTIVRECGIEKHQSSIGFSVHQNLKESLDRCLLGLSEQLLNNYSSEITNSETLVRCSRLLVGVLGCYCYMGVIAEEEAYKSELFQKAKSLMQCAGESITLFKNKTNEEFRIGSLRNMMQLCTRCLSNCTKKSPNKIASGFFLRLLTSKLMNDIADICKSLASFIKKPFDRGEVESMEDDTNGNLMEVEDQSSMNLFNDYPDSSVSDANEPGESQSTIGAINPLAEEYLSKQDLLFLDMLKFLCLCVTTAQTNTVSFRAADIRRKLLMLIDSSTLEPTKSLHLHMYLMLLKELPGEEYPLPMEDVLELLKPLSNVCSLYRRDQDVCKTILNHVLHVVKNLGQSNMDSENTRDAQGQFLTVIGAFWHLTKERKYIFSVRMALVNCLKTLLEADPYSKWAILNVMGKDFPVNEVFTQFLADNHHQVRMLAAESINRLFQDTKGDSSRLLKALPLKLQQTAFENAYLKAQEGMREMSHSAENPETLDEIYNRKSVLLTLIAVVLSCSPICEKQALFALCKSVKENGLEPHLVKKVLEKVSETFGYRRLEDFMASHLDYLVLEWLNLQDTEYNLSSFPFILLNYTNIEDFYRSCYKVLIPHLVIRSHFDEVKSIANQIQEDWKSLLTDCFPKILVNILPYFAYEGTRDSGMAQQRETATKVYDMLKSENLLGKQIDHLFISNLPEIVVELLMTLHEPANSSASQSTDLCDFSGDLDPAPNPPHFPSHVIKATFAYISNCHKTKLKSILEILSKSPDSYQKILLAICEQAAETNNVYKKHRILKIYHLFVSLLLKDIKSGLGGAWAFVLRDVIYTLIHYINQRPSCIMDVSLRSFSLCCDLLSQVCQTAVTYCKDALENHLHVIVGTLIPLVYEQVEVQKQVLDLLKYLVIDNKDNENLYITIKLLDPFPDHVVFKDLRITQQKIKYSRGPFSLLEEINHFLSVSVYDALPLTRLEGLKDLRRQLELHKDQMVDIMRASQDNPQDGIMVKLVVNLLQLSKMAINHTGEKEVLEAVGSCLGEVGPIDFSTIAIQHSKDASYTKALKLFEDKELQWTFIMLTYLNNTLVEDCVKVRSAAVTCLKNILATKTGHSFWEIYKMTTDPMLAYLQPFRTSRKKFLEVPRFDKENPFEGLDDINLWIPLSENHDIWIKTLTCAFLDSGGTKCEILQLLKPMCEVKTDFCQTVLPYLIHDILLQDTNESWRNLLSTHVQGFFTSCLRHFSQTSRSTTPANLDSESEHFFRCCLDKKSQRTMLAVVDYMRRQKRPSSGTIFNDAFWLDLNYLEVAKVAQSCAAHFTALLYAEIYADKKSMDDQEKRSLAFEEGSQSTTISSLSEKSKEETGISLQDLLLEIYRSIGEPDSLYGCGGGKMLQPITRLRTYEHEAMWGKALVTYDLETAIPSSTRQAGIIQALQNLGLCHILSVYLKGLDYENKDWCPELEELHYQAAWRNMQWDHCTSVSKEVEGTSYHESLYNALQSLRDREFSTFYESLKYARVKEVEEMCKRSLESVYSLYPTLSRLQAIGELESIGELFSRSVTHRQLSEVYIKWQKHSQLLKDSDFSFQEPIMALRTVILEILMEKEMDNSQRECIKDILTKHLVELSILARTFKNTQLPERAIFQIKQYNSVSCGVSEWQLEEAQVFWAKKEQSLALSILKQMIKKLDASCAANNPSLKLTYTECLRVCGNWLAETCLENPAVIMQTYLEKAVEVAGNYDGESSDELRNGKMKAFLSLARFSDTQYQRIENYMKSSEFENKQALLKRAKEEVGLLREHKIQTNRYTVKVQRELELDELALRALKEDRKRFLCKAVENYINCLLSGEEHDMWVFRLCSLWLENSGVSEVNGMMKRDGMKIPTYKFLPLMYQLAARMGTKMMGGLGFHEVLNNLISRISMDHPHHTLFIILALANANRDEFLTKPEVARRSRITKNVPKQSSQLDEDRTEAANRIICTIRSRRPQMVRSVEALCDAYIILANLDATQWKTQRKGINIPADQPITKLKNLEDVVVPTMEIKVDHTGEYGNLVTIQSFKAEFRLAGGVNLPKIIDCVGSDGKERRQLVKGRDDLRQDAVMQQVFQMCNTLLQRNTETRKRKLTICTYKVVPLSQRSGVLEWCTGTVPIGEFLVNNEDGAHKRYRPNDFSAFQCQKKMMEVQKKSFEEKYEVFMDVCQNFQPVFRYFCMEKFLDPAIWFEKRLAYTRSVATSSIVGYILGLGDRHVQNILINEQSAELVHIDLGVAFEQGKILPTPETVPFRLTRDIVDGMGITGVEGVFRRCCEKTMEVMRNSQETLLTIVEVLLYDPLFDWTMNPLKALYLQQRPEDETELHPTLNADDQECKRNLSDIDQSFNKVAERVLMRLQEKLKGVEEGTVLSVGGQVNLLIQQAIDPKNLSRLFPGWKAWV

IC50 [1, 5] [nM]	IC50 [2, 6] [nM]	IC50 [3] [nM]	IC50 [1] [nM]	IC50 [2] [nM]	Structure (SMILES)	D 17 TGI [4] [%]	D 17 TV (MEAN ± SD) [4]	inhibitory effect on ATM KAP phosphorylation, in words [1]	inhibitory effect on LN18 cell proliferation, in words [2]
0.9	6.83	0.37	–	–	Cn1c(=O)n2c3c4c(c(-c5ccc(OCCCN6CCCCC6)nc5)ccc4ncc31)OCC21CC1 [Example A-68, 2-methyl-7-(6-(3-(piperidin-1-yl)propoxy)pyridin-3-yl)-2,9-dihydro-1H-spiro[8-oxa-2,4,10a-triazanaphtho[2,1,8-cde]azulene-10,1′-cyclopropan]-1-one]	83.9	285 ± 61***^# mm^3	–	–
0.61	5.22	0.25	–	–	C[C@H]1COc2c(-c3ccc(OCCCN4CCCCC4)nc3)ccc3ncc4c(c23)n1c(=O)n4C [Example A-177, (S)-2,10-dimethyl-7-(6-(3-(piperidin-1-yl)propoxy)pyridin-3-yl)-9,10-dihydro-8-oxa-2,4,10a-triazanaphtho[2,1,8-cde]azulen-1(2H)-one]	77.9	338 ± 67***^ mm^3	–	–
0.22	1.39	0.23	–	–	C[C@H]1COc2c(-c3ccc(OCCCN4CCC5(CC4)CC5)nc3)ccc3ncc4c(c23)n1c(=O)n4C [Example A-183, (S)-7-(6-(3-(6-azaspiro[2.5]octan-6-yl)propoxy)pyridin-3-yl)-2,10-dimethyl-9,10-dihydro-8-oxa-2,4,10a-triazanaphtho[2,1,8-cde]azulen-1(2H)-one]	85.7	269 ± 89***^# mm^3	higher than that of AZD1390	higher than that of AZD1390
0.33	3.84	0.25	–	–	C[C@H]1COc2c(-c3ccc(OCCCN4CCC5(CC4)COC5)nc3)ccc3ncc4c(c23)n1c(=O)n4C [Example A-184, (S)-7-(6-(3-(2-oxa-7-azaspiro[3.5]nonan-7-yl)propoxy)pyridin-3-yl)-2,10-dimethyl-9,10-dihydro-8-oxa-2,4,10a-triazanaphtho[2,1,8-cde]azulen-1(2H)-one]	–	–	higher than that of AZD1390	–
–	–	0.44	0.64	5.93	C[C@H]1CNc2c(-c3ccc(OCCCN4CCCCC4)nc3)ccc3ncc4c(c23)n1c(=O)n4C [Example A-198, (S)-2,10-dimethyl-7-(6-(3-(piperidin-1-yl)propoxy)pyridin-3-yl)-2,8,9,10-tetrahydro-1H-2,4,8,10a-tetraazanaphtho[2,1,8-cde]azulen-1(2H)-one]	79.3	326 ± 77***^# mm^3	–	–
–	–	0.33	0.33	2.71	CC1CCN(CCCOc2ccc(-c3ccc4ncc5c6c4c3NC[C@H](C)n6c(=O)n5C)cn2)CC1 [Example A-211, (S)-2,10-dimethyl-7-(6-(3-(4-methylpiperidin-1-yl)propoxy)pyridin-3-yl)-2,8,9,10-tetrahydro-1H-2,4,8,10a-tetraazanaphtho[2,1,8-cde]azulen-1(2H)-one]	–	–	higher than that of AZD1390	higher than that of AZD1390
–	–	0.37	0.37	1.48	C[C@H]1CNc2c(-c3ccc(OCCCN4CCC(C)(C)CC4)nc3)ccc3ncc4c(c23)n1c(=O)n4C [Example A-212, (S)-7-(6-(3-(4,4-dimethylpiperidin-1-yl)propoxy)pyridin-3-yl)-2,10-dimethyl-2,8,9,10-tetrahydro-1H-2,4,8,10a-tetraazanaphtho[2,1,8-cde]azulen-1(2H)-one]	–	–	higher than that of AZD1390	higher than that of AZD1390

Structure (SMILES)	IC50 [1, 5] [nM]	IC50 [2, 6] [nM]	IC50 [3] [nM]	IC50 [1] [nM]	IC50 [2] [nM]	D 17 TGI [4] [%]	D 17 TV (MEAN ± SD) [4]	inhibitory effect on ATM KAP phosphorylation, in words [1]	inhibitory effect on LN18 cell proliferation, in words [2]
CC[C@H]1CNc2c(-c3ccc(OCCCN4CCCCC4)nc3)ccc3ncc4c(c23)n1c(=O)n4C [Example A-203, (S)-10-ethyl-2-methyl-7-(6-(3-(piperidin-1-yl)propoxy)pyridin-3-yl)-2,8,9,10-tetrahydro-1H-2,4,8,10a-tetraazanaphtho[2,1,8-cde]azulen-1(2H)-one]	–	–	0.54	0.83	5.66	71.4	396 ± 121*** mm^3	–	–
